According to patent US12109264B2, “Motile sperm domain containing protein 2 and inflammation” (ImmuneWalk Therapeutics, Inc., priority 2015, dated 2024):
“Also recorded” adds a separate entry of the source.

Columns and labels:
[1] = molecular target: T1, MOSPD2 (Homo sapiens, UniProt Q8NHP6); assay: Precipitation from human CD14 monocyte lysate, blot against MOSPD2; assay type: binding; details: labelled compound (OB201/OB221)
T1 construct: labelled VB-201 and VB-221 were employed on cell lysates from human CD14 monocytes; endogenous in cells; host or cells: primary human CD14 monocytes from peripheral blood of healthy donors
T1 sequence (Q8NHP6 1-518): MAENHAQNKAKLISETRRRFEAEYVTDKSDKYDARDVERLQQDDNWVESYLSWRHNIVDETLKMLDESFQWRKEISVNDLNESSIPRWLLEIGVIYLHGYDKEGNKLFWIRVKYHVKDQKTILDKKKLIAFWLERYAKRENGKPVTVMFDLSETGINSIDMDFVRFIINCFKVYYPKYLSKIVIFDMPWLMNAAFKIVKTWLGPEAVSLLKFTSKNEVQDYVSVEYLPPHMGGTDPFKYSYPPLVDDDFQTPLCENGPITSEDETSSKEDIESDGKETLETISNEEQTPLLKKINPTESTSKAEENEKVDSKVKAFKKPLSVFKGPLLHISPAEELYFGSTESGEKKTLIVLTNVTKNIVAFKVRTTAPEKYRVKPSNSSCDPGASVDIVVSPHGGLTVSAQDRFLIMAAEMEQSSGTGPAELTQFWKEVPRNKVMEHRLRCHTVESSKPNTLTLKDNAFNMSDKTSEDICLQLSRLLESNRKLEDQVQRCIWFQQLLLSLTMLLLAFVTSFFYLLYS
Experimental: (§1) VB-201 and VB-221 were labeled with biotin as follows. VB-201, VB-221 and ovalbumin (OVA, Sigma, Israel) were dissolved in 0.1M MES buffer (Thermo Scientific, Rockford, IL) and conjugated using EDC [1-ethyl-3-(dimethylaminopropyl) carbodiimide HCL] (Thermo Scientific) at a molar ratio of 100 (VB-201/VB-221):1 (OVA):240 (EDC) for 2-3 hr at room temperature. After which, samples were transferred to 10 kDa dialysis cassettes (Thermo Scientific) and dialyzed overnight against PBS. The ovalbumin bound VB-201 (OB201) and VB-221 (OB221) were then conjugated with amine-PEG2-biotin (in 0.1M MES buffer) using EDC at a molar ratio of 1 (OB201/0B221):100 (amine-PEG2-biotin):700 (EDC). The reaction was allowed to proceed for 2-3 hr at room temperature after which samples were again transferred to a 10 kDa dialysis cassette and dialyzed overnight against PBS.
(§2) Cells were lysed using a 1% NP-40 lysis buffer containing 1:100 protease and phosphatase inhibitors, followed by 20 min incubation on ice and 15 min centrifugation at maximum speed. Samples were incubated overnight at 4° C. with solvent, OB201 or OB221 in a rotator. Streptavidin agarose beads (Sigma, Israel) were added for 2 hours. Protein elution was performed with lysis buffer without DTT for 10 min at room temperature. Sample loading, transfer and immuno-blotting were performed as described above. […]

[2] = molecular target: T1, MOSPD2; assay: Precipitation of human monocyte proteins with labeled compound, differential display by Mass-Spectrometry; assay type: binding; details: proteins from human monocytes
[3] = tested on: monocytes; details: cited from earlier work
[4] = molecular target: T2, TLR2 (Homo sapiens, UniProt O60603); assay: Precipitation from human CD14 monocyte lysate, blot against TLR2; assay type: binding; details: labelled compound (OB201/OB221)
T2 construct: endogenous in cells; host or cells: primary human CD14 monocytes
Experimental: as §1, §2

[5] = molecular target: T3, HA-tagged human MOSPD2 on HEK293 cells (Homo sapiens, UniProt Q8NHP6); assay: Cell-surface binding by flow cytometry on transfected HEK293 cells; details: for staining of / binding to cells that express MOSPD2 (HA positive): labelled compound (OB201/OB221), streptavidin-APC, HEK293 transfected with HA-tagged MOSPD2
T3 construct: Full length human MOSPD2 cDNA was inserted, using EcoRI and XbaI restriction sites; HA (YPYDVPDYA); expressed in transfected cells; host or cells: HEK293
T3 sequence (Q8NHP6 1-518): T1 sequence (Q8NHP6 1-518)
Experimental: HEK293 cells were transfected for 48 hours with empty plasmid or plasmid encoding hemagglutinin (HA)-tagged human MOSPD2 using jetPRIME transfection reagent (Polyplus transfection, France). Transfection efficiency was determined by flow cytometry using anti-HA-PE (miltenyi Biotec, Germany) antibody.
as §1
Streptavidin-APC (eBioscience, San Diego, CA) was used to detect binding of labelled VB-201 or VB-221 in flow cytometry experiments.
Studies were also conducted to assess whether VB-201 can bind MOSPD2 in its native form, when expressed on the cell surface. Thus, HEK293 cells were transfected with a plasmid encoding HA-tagged human MOSPD2 and then stained with labelled VB-201 or VB-221.

[6] = tested on: chemokine-induced signaling in human monocytes; details: cited from earlier work

T2 sequence (O60603 21-784): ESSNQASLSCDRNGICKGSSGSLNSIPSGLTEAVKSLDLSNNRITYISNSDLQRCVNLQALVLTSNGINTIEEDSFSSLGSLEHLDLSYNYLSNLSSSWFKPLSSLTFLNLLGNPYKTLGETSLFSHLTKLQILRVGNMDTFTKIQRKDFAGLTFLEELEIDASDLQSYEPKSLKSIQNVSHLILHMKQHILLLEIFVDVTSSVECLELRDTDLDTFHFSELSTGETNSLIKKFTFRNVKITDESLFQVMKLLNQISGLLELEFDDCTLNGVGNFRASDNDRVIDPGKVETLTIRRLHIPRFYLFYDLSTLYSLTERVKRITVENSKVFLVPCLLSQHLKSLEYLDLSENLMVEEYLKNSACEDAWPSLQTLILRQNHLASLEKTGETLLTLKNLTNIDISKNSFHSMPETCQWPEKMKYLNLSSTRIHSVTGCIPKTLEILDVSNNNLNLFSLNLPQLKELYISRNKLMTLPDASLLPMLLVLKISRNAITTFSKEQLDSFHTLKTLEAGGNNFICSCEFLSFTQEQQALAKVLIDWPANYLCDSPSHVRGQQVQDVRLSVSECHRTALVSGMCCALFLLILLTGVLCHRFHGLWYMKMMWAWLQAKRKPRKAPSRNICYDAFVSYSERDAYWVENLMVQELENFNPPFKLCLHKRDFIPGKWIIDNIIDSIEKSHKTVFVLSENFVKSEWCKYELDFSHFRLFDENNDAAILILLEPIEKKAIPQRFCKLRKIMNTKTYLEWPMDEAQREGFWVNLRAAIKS

Compound | precipitation of MOSPD2 [1] | binding of MOSPD2 (Mass-Spectrometry of precipitated proteins) [2] | migration of monocytes ([3]; in vitro and in vivo) | precipitation of TLR2 [4] | binding to cells transfected with empty vector ([5]; HEK293 transfected with empty vector) | staining of / binding to cells that express MOSPD2 (HA positive) [5] | chemokine-induced migration in human monocytes [3] | chemokine-induced signaling in human monocytes [6]
1-hexadecyl-2-(4′-carboxy)butyl-glycero-3-phosphocholine [VB-201] | binds; also recorded: markedly more intense than VB-221 | strong binding | inhibits | comparable intensity | not | binds; also recorded: profound staining | – | –
CCCCCCCCCCC(CCCCCCCC)COCC(COP(=O)([O-])OCC[N+](C)(C)C)OCCCCC(=O)O (centres unmarked) [VB-221, 1-(2′-octyl)dodecyl-2-(4′-carboxy)butyl-glycero-3-phosphocholine] | – | not | – | comparable intensity | – | only weak staining | did not inhibit | did not inhibit
